According to ChEMBL document CHEMBL1201862, “PubChem BioAssay data set” (2004):
Counter-ions that a name gives are not always drawn.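 Compound exposure: 48 hours, 5 concentrations, 96-well plates. GI50 is the concentration that inhibits growth by half.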 Activity calls are given as the source filed them. Cut-off read from the data, not from the text of the source: active = GI50 up to about 1.1 µM and inactive = higher.

What was measured:
Test in all cases: NCI tumour cell line growth inhibition, 48 h
[1] = system: IGROV-1
[2] = system: NCI-H226
[3] = system: OVCAR-4
[4] = system: MDA-N
[5] = system: ACHN
[6] = system: COLO 205
[7] = system: HCC 2998
[8] = system: OVCAR-5
[9] = system: UACC-62
[10] = system: HT-29
[11] = system: SF-539
[12] = system: SK-OV-3
[13] = system: HOP-62
[14] = system: SN12C
[15] = system: LOX IMVI
[16] = system: SW-620
[17] = system: SK-MEL-28
[18] = system: RXF 393
[19] = system: MOLT-4
[20] = system: BT-549

| SMILES | GI50 [1] | GI50 [2] | GI50 [3] | GI50 [4] | GI50 [5] | GI50 [6] | GI50 [7] | GI50 [8] | GI50 [9] | GI50 [10] | GI50 [11] | GI50 [12] | GI50 [13] | GI50 [14] | GI50 [15] | GI50 [16] | GI50 [17] | GI50 [18] | GI50 [19] | GI50 [20] |
| --- | --- | --- | --- | --- | --- | --- | --- | --- | --- | --- | --- | --- | --- | --- | --- | --- | --- | --- | --- | --- |
| CC1(C)C(/C=N\O)=[N+]([O-])C(C)(C)N1O | > 100 µM (inactive) | > 100 µM (inactive) | > 100 µM (inactive) | 52.7 µM (inactive) | > 100 µM (inactive) | > 100 µM (inactive) | > 100 µM (inactive) | > 100 µM (inactive) | > 100 µM (inactive) | 54.3 µM (inactive) | > 100 µM (inactive) | > 100 µM (inactive) | > 100 µM (inactive) | > 100 µM (inactive) | > 100 µM (inactive) | > 100 µM (inactive) | > 100 µM (inactive) | > 100 µM (inactive) | – | – |
| [O-][S+]1c2ccccc2N=C(c2cccc3ccccc23)CC1c1cccc2ccccc12 (configuration not stated) | 15.1 µM (inactive) | 21.1 µM (inactive) | 12.8 µM (inactive) | – | 23.1 µM (inactive) | 20.9 µM (inactive) | 17.2 µM (inactive) | 31.6 µM (inactive) | 12.6 µM (inactive) | 25.7 µM (inactive) | 19.5 µM (inactive) | 32.9 µM (inactive) | 34.2 µM (inactive) | 16.6 µM (inactive) | 13.6 µM (inactive) | 17.7 µM (inactive) | 0.91 µM (active) | 22.6 µM (inactive) | 20.3 µM (inactive) | – |
| CCN(CC)CC(O)C1CCC(c2ccccc2)CC1 (configuration not stated) | 35.2 µM (inactive) | 15.8 µM (inactive) | – | 16.3 µM (inactive) | 18 µM (inactive) | 12.8 µM (inactive) | 0.627 µM (active) | 23.2 µM (inactive) | 15.6 µM (inactive) | 10.5 µM (inactive) | 16.7 µM (inactive) | 16.1 µM (inactive) | 30.9 µM (inactive) | 39.7 µM (inactive) | 17.4 µM (inactive) | 24.8 µM (inactive) | 25.6 µM (inactive) | 17.4 µM (inactive) | 43.8 µM (inactive) | – |
| CC(C)CC[C@H](O)[C@@H](C)[C@H]1[C@@H](OC2OC(C)C(O)C(O)C2O)C[C@H]2[C@@H]3CC=C4C[C@@H](O)CC[C@]4(C)[C@H]3[C@@H](O)C[C@]12C (some centres not stated) | 4.42 µM (inactive) | – | – | – | > 27.7 µM (inactive) | 1.8 µM (inactive) | > 100 µM (inactive) | > 24.9 µM (inactive) | 0.538 µM (active) | 1.75 µM (inactive) | 0.0337 µM (active) | > 100 µM (inactive) | 0.301 µM (active) | > 100 µM (inactive) | 0.889 µM (active) | 0.533 µM (active) | 0.506 µM (active) | 0.124 µM (active) | 0.0904 µM (active) | 0.491 µM (active) |
| O=C(/C=C/c1ccsc1)c1ccc(Cl)cc1 | > 100 µM (inactive) | 52 µM (inactive) | > 100 µM (inactive) | 59 µM (inactive) | > 100 µM (inactive) | > 100 µM (inactive) | > 100 µM (inactive) | 56.1 µM (inactive) | 41.6 µM (inactive) | 36.5 µM (inactive) | 76.7 µM (inactive) | > 100 µM (inactive) | > 100 µM (inactive) | 43.4 µM (inactive) | 25.5 µM (inactive) | 33.6 µM (inactive) | > 100 µM (inactive) | – | 19.2 µM (inactive) | – |
| CCOC(=O)NC(=O)c1cn(CCCOC(=O)CCCCCCCCCCC(=O)OCCCn2cc(C(=O)NC(=O)OCC)c(=O)n(C)c2=O)c(=O)n(C)c1=O | > 100 µM (inactive) | > 100 µM (inactive) | > 100 µM (inactive) | – | > 100 µM (inactive) | > 100 µM (inactive) | > 100 µM (inactive) | > 100 µM (inactive) | > 100 µM (inactive) | > 100 µM (inactive) | > 100 µM (inactive) | > 100 µM (inactive) | > 100 µM (inactive) | > 100 µM (inactive) | > 100 µM (inactive) | > 100 µM (inactive) | > 100 µM (inactive) | > 100 µM (inactive) | > 100 µM (inactive) | – |
| C=CCC(OCCOCC)c1cc(OCCOCC)ccc1OC (configuration not stated) | > 100 µM (inactive) | > 100 µM (inactive) | > 100 µM (inactive) | – | > 100 µM (inactive) | > 100 µM (inactive) | > 100 µM (inactive) | > 100 µM (inactive) | > 100 µM (inactive) | > 100 µM (inactive) | > 100 µM (inactive) | > 100 µM (inactive) | > 100 µM (inactive) | > 100 µM (inactive) | > 100 µM (inactive) | > 100 µM (inactive) | > 100 µM (inactive) | > 100 µM (inactive) | > 100 µM (inactive) | – |
| O=C1c2ccccc2C(=O)c2c(NCCNCCO)ccc(O)c21 | 2.97 µM (inactive) | 2.71 µM (inactive) | 2.85 µM (inactive) | – | 2.73 µM (inactive) | 2.26 µM (inactive) | 4.66 µM (inactive) | 3.4 µM (inactive) | 3.35 µM (inactive) | 2.58 µM (inactive) | 2.9 µM (inactive) | 2.55 µM (inactive) | 3.21 µM (inactive) | 1.45 µM (inactive) | 1.51 µM (inactive) | 2.26 µM (inactive) | 2.88 µM (inactive) | 2.15 µM (inactive) | 1.37 µM (inactive) | – |
| Cc1ccc(C)c(NC(=O)CC/C(=N\NC(=O)C(=O)NN)C(C)C(=O)c2ccc(O)cc2)c1 (configuration not stated) | > 100 µM (inactive) | > 100 µM (inactive) | > 100 µM (inactive) | – | > 100 µM (inactive) | > 100 µM (inactive) | > 100 µM (inactive) | > 100 µM (inactive) | > 100 µM (inactive) | > 100 µM (inactive) | > 100 µM (inactive) | > 100 µM (inactive) | > 100 µM (inactive) | > 100 µM (inactive) | > 100 µM (inactive) | > 100 µM (inactive) | > 100 µM (inactive) | > 100 µM (inactive) | > 100 µM (inactive) | – |
| Cn1c2cc(O)cc(O)c2c(=O)c2c([N+](=O)[O-])cccc21 | > 100 µM (inactive) | > 100 µM (inactive) | > 100 µM (inactive) | – | > 100 µM (inactive) | > 100 µM (inactive) | > 100 µM (inactive) | > 100 µM (inactive) | > 100 µM (inactive) | > 100 µM (inactive) | > 100 µM (inactive) | > 100 µM (inactive) | > 100 µM (inactive) | > 100 µM (inactive) | > 100 µM (inactive) | > 100 µM (inactive) | > 100 µM (inactive) | > 100 µM (inactive) | > 100 µM (inactive) | – |
| COc1ccc(/N=N/c2c(N)nn(C)c2N)cc1 | > 100 µM (inactive) | > 100 µM (inactive) | > 100 µM (inactive) | – | > 100 µM (inactive) | > 100 µM (inactive) | 0.319 µM (active) | > 100 µM (inactive) | > 100 µM (inactive) | > 100 µM (inactive) | > 100 µM (inactive) | > 100 µM (inactive) | > 100 µM (inactive) | > 100 µM (inactive) | > 100 µM (inactive) | > 100 µM (inactive) | > 100 µM (inactive) | > 100 µM (inactive) | 82.8 µM (inactive) | – |
| O=C1[C@H]2ON(c3ccccc3)C(c3ccc(Cl)cc3)[C@H]2C(=O)N1c1ccc(Cc2ccc(N3C(=O)[C@@H]4ON(c5ccccc5)C(c5ccc(Cl)cc5)[C@@H]4C3=O)cc2)cc1 (some centres not stated) | > 100 µM (inactive) | > 100 µM (inactive) | > 100 µM (inactive) | – | > 100 µM (inactive) | > 100 µM (inactive) | > 100 µM (inactive) | > 100 µM (inactive) | > 100 µM (inactive) | > 100 µM (inactive) | > 100 µM (inactive) | > 100 µM (inactive) | > 100 µM (inactive) | > 100 µM (inactive) | > 100 µM (inactive) | > 100 µM (inactive) | > 100 µM (inactive) | > 100 µM (inactive) | > 100 µM (inactive) | – |
| CC(=O)Nc1ccc(S(=O)(=O)Nc2cnc3ccccc3n2)cc1 | > 100 µM (inactive) | > 100 µM (inactive) | > 100 µM (inactive) | – | > 100 µM (inactive) | > 100 µM (inactive) | > 100 µM (inactive) | > 100 µM (inactive) | > 100 µM (inactive) | > 100 µM (inactive) | > 100 µM (inactive) | > 100 µM (inactive) | > 100 µM (inactive) | > 100 µM (inactive) | > 100 µM (inactive) | > 100 µM (inactive) | > 100 µM (inactive) | > 100 µM (inactive) | > 100 µM (inactive) | – |
| O=C(/C=C/c1ccccc1)c1ccc(NCc2nc3ccccc3[nH]2)cc1 | 6.56 µM (inactive) | 4.19 µM (inactive) | 9.23 µM (inactive) | – | 7.66 µM (inactive) | 3.21 µM (inactive) | 2.12 µM (inactive) | 10.8 µM (inactive) | 8.05 µM (inactive) | 2.58 µM (inactive) | 2.17 µM (inactive) | 6.37 µM (inactive) | 11.2 µM (inactive) | 5.33 µM (inactive) | 1.69 µM (inactive) | 2.75 µM (inactive) | 18 µM (inactive) | 5.22 µM (inactive) | 3.56 µM (inactive) | – |
| NCCS [CYSTEAMINE HYDROCHLORIDE] | > 100 µM (inactive) | > 100 µM (inactive) | > 100 µM (inactive) | > 100 µM (inactive) | > 100 µM (inactive) | > 100 µM (inactive) | > 100 µM (inactive) | > 100 µM (inactive) | – | > 100 µM (inactive) | 45.8 µM (inactive) | – | > 100 µM (inactive) | > 100 µM (inactive) | > 100 µM (inactive) | > 100 µM (inactive) | > 100 µM (inactive) | – | > 100 µM (inactive) | – |
